According to paper PMC11640089, “JRM-28, a Novel HDAC2 Inhibitor, Upregulates Plasticity-Associated Proteins in Hippocampal Neurons and Enhances Morphological Plasticity via Activation of CREB: Implications for Alzheimer’s Disease” (Cells, 2024):

Key:
[1] = tested on: HDAC2; assay: HDAC2 immunoblot and immunofluorescence in SHSY5Y cells; assay type: cell-based, human
Description: (§1) Immunofluorescence analysis was performed as described earlier. Briefly, cells cultured on coverslip contained in six-well plates (Lab-Tek II) were fixed with 4% paraformaldehyde for 20 min followed by two rinses in TBST. Samples were incubated in a 1:1 solution of TBST and blocking buffer containing rabbit anti-NR2A (1:250), anti-GluR1 (1:250), ant-HDAC2 (1:250), anti-CREB (1:250), and anti-MAP2 (1:250) for 2 h at 37 °C. After three washes in PBST (15 min each), slides were further incubated with FIT-C and TRIT-C-conjugated secondary antibodies. For negative controls, a set of culture slides was incubated under similar conditions with secondary antibodies and without the primary antibodies (Table 3). The samples were mounted and observed under an Accuscope fluorescent microscope. The images were captured and merged in CaptaVision^TM imaging software.
(§2) Immunoblot analysis was carried out as described earlier. Briefly, SHSY5Y neuronal cell homogenates were electrophoresed by 4–12% Tris-Glycine gradient gel, proteins were transferred onto a 0.45 μm nitrocellulose membrane, and the protein band was visualized with Odyssey Sa infrared scanner after immunolabeling with primary antibodies followed by infrared fluorophore-tagged secondary antibody (Licor Biosciences, Lincoln, NE, USA).

[2] = tested on: CREB; assay: CREB family expression (PCR array, RT-PCR, immunoblot) in SHSY5Y cells; assay type: cell-based, human
Description: Total RNA was isolated from SHSY5Y neurons using Gene JET RNA Purification Kit (Thermofisher Scientific; Cat #K0731) following the manufacturer’s protocol. RNA was converted to cDNA using the GoScript™ Reverse Transcriptase kit (Promega, Cat # A5001). Semi-quantitative RT-PCR was carried out as described earlier using an RT-PCR kit from Promega (Cat# M7502). Briefly, 1 µg of total RNA was reverse-transcribed using oligo(dT)12–18 as a primer and MMLV reverse transcriptase in a 20 µL reaction mixture. The resulting cDNA was diluted by nuclease-free H2O in a ratio of 1:2, and diluted cDNA was amplified using the following primers (Table 2).
as §2

[3] = tested on: NR2A and GluR1; assay: NR2A and GluR1 immunofluorescence in E18 mouse hippocampal neurons; assay type: cell-based; details: 5 µM
Description: as §1

[4] = tested on: iPSC-derived AD neurons; assay: Dual immunofluorescence in iPSC-derived AD neurons (A246E psen1); assay type: cell-based, human
Description: Primary neuronal cell culture was performed based on a protocol approved by the Institutional Animal Care and Use Committee (IACUC) of the University of Wisconsin-Milwaukee, Milwaukee, WI-53211, and by the guidelines set by the National Institute of Health. Embryonic day 18 (E18) fetuses were harvested, and hippocampal tissue was dissected from brains and then processed for single cell culture in poly-D-lysine-coated plates, as discussed elsewhere. Neuronal cells were maintained with B-27^TM-plus-supplemented complete neurobasal media for 7–10 days until fully differentiated. After that, the treatment with JRM-28 was performed. SHSY5Y cells were grown, maintained, and passaged with complete DMEM media (a bottle of DMEM supplemented with 10% FBS, 2 mM L-glutamine, and 100 units/mL antibiotics); otherwise, for neuronal differentiation study, SHSY5Y was seeded with complete neurobasal medium. For making AD neurons, commercially purchased (Axol Bioscience Ltd.) A246E psen1 neural stem cells (NSCs) were maintained with KnockOut^TM DMEM/F12 media supplemented with StemPro^TM Neural Supplement, bFGF, EGF, 2 mM GlutMAX^TM supplement, and 10 mL/L antibiotic-antimycotic solution. These […] NSCs were grown in a […] cell culture flask coated with Geltrex^TM matrix until fully confluent and then detached by Accutase, centrifuged, washed, and plated in a poly-D-lysine-coated plate supplemented with complete neurobasal media for neuronal differentiation. After one week, when neurons were differentiated, JRM-28 treatment was conducted.
as §1

[5] = target: HDAC2 (Homo sapiens, UniProt Q92769); assay: Endogenous HDAC2 activity assay (luminescence) in SHSY5Y cells; assay type: cell-based; set-up: endogenous in cells; host or cells: SHSY5Y; details: not reduced by DTT; 30 min of treatment
Description: Next, JRM-28 in the presence of DTT was evaluated by cytotoxicity assays. A TUNEL assay was performed with SHSY5Y neuronal cells using increasing concentrations of JRM-28 in the presence of DTT. […] The results were further confirmed by quantitative analysis (Figure 4B). […] Next, we wanted to study the effect of lower concentrations of […] on the regulation of HDAC2 activity. […] To further confirm this finding, we performed a luminescence-based HDAC2 activity assay in SHSY5Y cells with increasing doses of JRM-28. JRM-28 was not reduced by DTT during the treatment, as the cellular reductase and oxidoreductase enzymes are expected to reduce JRM-28 in its “active 28a/b” components. […]
Figure 4 Exploring the cytotoxicity of JRM-28. SHSY5Y neurons were treated with different doses of JRM-28 for 24 h and then analyzed for different cytotoxicity assays. […] TUNEL^+ve cells were detected as condensed brown bodies, whereas nuclei were stained with hematoxylin (blue). (B) TUNEL bodies were counted per 10 randomly selected cells in 20 different images. Results were plotted as a dotted boxplot, and the significance of the mean was analyzed by one-way ANOVA (single effector = treatment). **** p < 0.00001 versus DMSO control. […] (E) The band density of individual HDAC2 bands was assessed in ImageJ software (version 1.45) followed by normalization with respective β-actin band density. […]

Sequence of HDAC2 (Homo sapiens, UniProt Q92769) (Q92769 whole entry): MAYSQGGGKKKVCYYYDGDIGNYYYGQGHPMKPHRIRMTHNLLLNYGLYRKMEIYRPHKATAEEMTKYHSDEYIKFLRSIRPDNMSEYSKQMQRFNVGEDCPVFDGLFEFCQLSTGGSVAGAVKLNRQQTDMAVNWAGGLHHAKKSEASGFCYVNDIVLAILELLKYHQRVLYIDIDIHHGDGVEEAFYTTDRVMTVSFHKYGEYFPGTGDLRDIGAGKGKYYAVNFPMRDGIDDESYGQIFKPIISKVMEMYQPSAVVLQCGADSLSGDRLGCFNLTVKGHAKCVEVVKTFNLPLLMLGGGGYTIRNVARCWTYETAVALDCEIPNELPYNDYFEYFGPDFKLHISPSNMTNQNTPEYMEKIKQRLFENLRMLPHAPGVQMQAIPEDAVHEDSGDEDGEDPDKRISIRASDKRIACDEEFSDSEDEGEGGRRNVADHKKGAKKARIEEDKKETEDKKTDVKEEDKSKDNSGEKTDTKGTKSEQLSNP

CN(C(=O)CC(O)/C=C/CCSS(=O)(=O)CC/C=C/C(O)CC(=O)N(C)c1ccccc1)c1ccccc1 (stereo not drawn) [JRM-28, S-((E)-5-hydroxy-7-(methyl(phenyl)amino)-7-oxohept-3-en-1-yl) (E)-5-hydroxy-7-(methyl(phenyl)amino)-7-oxohept-3-ene-1-sulfonothioate]
nuclear translocation of HDAC2 (immunocytochemistry) ([1]; 5 µM): significantly arrested the nuclear translocation of HDAC2 | HDAC2 expression in nuclei (dual IF with CREB) ([1]; 5 µM, SHSY5Y cells): significantly attenuated the expression of HDAC2 in the nuclei | HDAC2 expression (immunoblot) ([1]; 2, 5, and 10 µM, 24 h, versus control): did not upregulate the expression of HDAC2 | CREB and CREB-dependent gene expression (RT2 Profiler PCR Array) ([2]; 5 µM): strongly upregulated the expressions of the creb gene and 37 other CREB-dependent genes | creb mRNA expression (semi-quantitative RT-PCR) ([2]; 5 µM): upregulated the mRNA expression of creb | crem mRNA expression (semi-quantitative RT-PCR) ([2]; 2 and 5 µM): failed to upregulate the expression of crem | CREB protein expression (immunoblot) ([2]; increasing concentrations): upregulated the expression of CREB protein | expressions of NR2A and GluR1 (IF, MFI) [3]: upregulated | expressions of ionotropic glutamate receptors (NR2A, GluR1) ([4]; 5 µM): augmented the expressions of ionotropic glutamate receptors | length of MAP2-ir basal dendrites ([4]; 5 µM): increase the length of MAP2-ir basal dendrites | CREB expression (dual IF) ([4]; 5 μM, 24 h (legend: 48 h)): strong upregulation of CREB | HDAC2 expression (dual IF) ([4]; 5 μM, 24 h (legend: 48 h)): significant downregulation of HDAC2 | IC50 [5]: 5.44 µM
